This note sets out measurements from patent US11674162B2, “Selective advantage in fermentation” (Ginkgo Bioworks, Inc., priority 2014, dated 2023).

Assay [1] relates to NS100. The experiment in a line: Optical density after 72 hours in defined YNB medium with different nitrogen sources. The format is cell-based, Saccharomyces cerevisiae. The note with it: strain NS100 (control). Here is the method:
(§1) Strains NS98, NS99, and NS100 were grown in defined YNB medium with 10 mM urea and 100 μg/mL hygromycin to stationary phase aerobically at 30° C. 1/1000 v/v inoculations were then made into the same defined medium with either 10 mM urea, 10 mM biuret, or no additional nitrogen and grown under the same conditions.
(§2) Additionally, strains NS100, NS101, NS111, and NS112 were grown in defined YNB medium with 10 mM urea and 100 μg/mL hygromycin to stationary phase aerobically at 30° C. 1/1000 v/v inoculations were then made into the same defined medium with either 10 mM urea, 10 mM cyanamide, or no additional nitrogen and grown under the same conditions.

Assay [2] has as its system NS101. The experiment in a line: Growth progress in defined medium, 96 well plate (FIG. 21). Type of assay: cell-based, Saccharomyces cerevisiae. The note with it: strain NS101, 10 mM, YNB medium, 30° C. The method, then: (§3) The optical density of NS100 and NS101 grown in defined medium with different nitrogen sources was assessed as follows. NS100 and NS101 were grown overnight in YPD medium, washed once in an equal volume of sterile water, and inoculated at 3.33% v/v. […] Data are averages of 3 replicate wells in a 96 well plate; 150 μL per well. 30° C., YNB medium contained 20 g/L glucose, 1.7 g/L YNB base medium without amino acids or ammonium sulfate, 5 g/L sodium sulfate, 100 μg/mL hygromycin, and either 10 mM urea, 10 mM cyanamide, or no nitrogen source. Inoculation was with 5 μL of culture pregrown for 24 hours in the same medium with urea as nitrogen source (FIG. 21).

Assay [3] concerns NS100. The assay is described as above. The format is cell-based, Saccharomyces cerevisiae. To be noted: strain NS100 (control), 10 mM, YNB medium, 30° C. The method, then:
as §3

In assay [4] the test system is NS101. The experiment in a line: Optical density after 72 hours in defined YNB medium with different nitrogen sources. The format is cell-based, Saccharomyces cerevisiae. To be noted: strain NS101 (cah), 10 mM nitrogen source. The method, then:
as §2

Assay [5] deals with NS112. The assay is described as above. Type of assay: cell-based, Saccharomyces cerevisiae. The note with it: strain NS112 (control), 10 mM nitrogen source. The method, then: as §2
The test system of assay [6] is NS111. The description is as above. The format is cell-based, Saccharomyces cerevisiae. To be noted: strain NS111 (cah), 10 mM nitrogen source. Here is the method: as §2
Assay [7] relates to NS101. The experiment in a line: Growth in rich YPD medium with and without cyanamide (FIG. 24). The format is cell-based, Saccharomyces cerevisiae. The note with it: rich YPD medium with 10 mM cyanamide, 30° C. Here is the method:
The optical density of NS100 and NS101 grown in rich YPD medium with 100 μg/mL hygromycin and with and without 10 mM cyanamide was assessed as follows. NS100 and NS101 were grown overnight in YNB medium, and inoculated at 3.33% v/v. […] Thus, cyanamide, in addition to functioning as a sole source of nitrogen, may also act as a deterrent for microbial growth. Data are averages of 3 replicate wells in a 96 well plate; 150 μL per well. 30° C., YPD medium or YPD medium with 10 mM cyanamide. Inoculation was with 5 μL of culture pregrown for 24 hours in the YNB medium with urea as nitrogen source (FIG. 24).

The subject of assay [8] is NS91. The experiment in a line: Growth progress in MOPS defined medium with different nitrogen sources. The format is cell-based, Escherichia coli. The note with it: for ammonium chloride concentration giving similar growth: strain NS91 (control), 0.25 mM as sole nitrogen source; for growth with the compound as nitrogen source: control strain NS91, MOPS medium. Here is the method:
(§4) Vector and strain construction was as described in Examples 1-4. All vectors contain the ampicillin resistance gene, and 100 ug/mL ampicillin was added to all culture medium. These strains were grown in MOPS defined medium with different nitrogen sources.
(§5) An average of all four strains grown on different ammonium chloride concentrations from 0 to 1.5 mM is also shown as a standard curve for growth with limiting nitrogen. NS91 grown on melamine is similar to the 0 mM ammonium chloride control.
(§6) An average of all four strains grown on different ammonium chloride concentrations from 0 to 1.5 mM is also shown as a standard curve for growth with limiting nitrogen. NS91 grown on ammeline is similar to the 0 mM ammonium chloride control.
(§7) Cultures were grown aerobically at 37° C. with 100 mg/L ampicillin. Pre-cultures were grown in LB media with 100 mg/L ampicillin, washed once with an equal volume of MOPS media containing no nitrogen, and inoculated at 5% v/v of the final fermentation volume. The content of the MOPS medium is outlined in Table 9.

Assay [9] deals with NS103. Described as above. The format is cell-based, Escherichia coli. The note with it: strain NS103, 0.25 mM as sole nitrogen source. The method, then: as §4, §5, §6, §7
Assay [10] concerns NS91. The experiment in a line: Maximum growth rate on ammeline as sole nitrogen source. The format is cell-based, Escherichia coli. The note with it: strain NS91 (control), 0.5 mM ammeline as sole nitrogen source. Here is the method:
(§8) Strains can also be selected for improved utilization of melamine derived nitrogen sources, in one example NS88 was passaged for 11 serial transfers in MOPS defined medium with 0.5 mM ammeline as sole nitrogen source. After the final passage, single colonies were isolated, and one was designated as NS93. NS93 and NS91 were grown overnight in medium with 0.5 mM ammonium chloride as sole nitrogen source, and then inoculated in medium with 0.5 mM ammeline as sole nitrogen source.

The test system of assay [11] is NS93. Described as above. To be noted: strain NS93, 0.5 mM ammeline as sole nitrogen source. Type of assay: cell-based, Escherichia coli. The method, then: as §8
The subject of assay [12] is NS99. The experiment in a line: Optical density after 72 hours in defined YNB medium with different nitrogen sources. The format is cell-based, Saccharomyces cerevisiae. To be noted: strain NS99, 10 mM nitrogen source, aerobic 30° C. The method, then:
(§9) Strains NS98 and NS99 are industrial S. cereviaie strains carrying plasmids pNC96 (hyg^R, and a codon optimized trzE from Rhodococcus sp. MEL and pNC97 (hyg^R, and a codon optimized trzE from Rhizobium leguminosarum), respectively. Strain NS100 is the same industral S. cerevisiae stain carrying plasmid pNC67 (hyg^R, nat^R) which serves as a control strain.
as §1

In assay [13] the test system is NS98. The assay is described as above. Type of assay: cell-based, Saccharomyces cerevisiae. The note with it: strain NS98, 10 mM nitrogen source, aerobic 30° C. The method, then:
as §9, §1

For assay [14], the system named is E. coli strains containing pNC121. Put plainly: Growth on melamine as sole nitrogen source (FIG. 18). Type of assay: cell-based, Escherichia coli. To be noted: 0.5 mM; E. coli K12, MG1655, B and Crooks strains containing pNC121. Here is the method:
FIGS. 16, 17, and 18 show E. coli strains derived from E. coli K12, E. coli MG1655, E. coli B, and E. coli Crooks (C) containing either pNC121 with the complete melamine utilization pathway, or pNC53, a control vector. See Tables 7 and 8 for strain details. All the strains containing pNC121 are able to grow on 0.5 mM melamine as sole nitrogen source (FIG. 18).
as §7

The test system of assay [15] is NS88. The experiment in a line: Growth progress in MOPS defined medium with different nitrogen sources. Type of assay: cell-based, Escherichia coli. The note with it: strain NS88, 1 mM nitrogen source. The method, then:
as §4, §7

The test system of assay [16] is NS90. Described as above. The format is cell-based, Escherichia coli. The note with it: strain NS90, 1 mM nitrogen source. Here is the method:
as §4, §7

Where [17] appears, read: Table 11, 10 mM nitrogen source.
Where [18] appears, read: Table 10, 10 mM nitrogen source.

Take `N#CN` [cyanamide, Cyanamide]: the “Optical Density 600 nm” value in assay [1] (setting [17]) is 0.05; in assay [4], 4.66; in [5], 0.15; in [6] it was 3.09. Also, the optical density reached result was “comparable to that with urea” in [2] and “comparable to that with no nitrogen present in the medium” in assay [3]. For the same compound, the “lag phase of NS101 relative to NS100” value in [7] is given as “shorter lag phase”.
Turning to `Nc1nc(N)[nH]c(=O)n1` [ammeline, Ammeline], the “ammonium chloride concentration giving similar growth” value is reported as roughly 0 mM in [8] and roughly 0.5 mM in assay [9]. For the same compound, the figures for the maximum growth rate in assay [10] and in assay [11] were 0.024 h⁻¹ and 0.087 h⁻¹, respectively.
On to `NC(N)=O` [urea], for which the “Optical Density 600 nm” value is given as 5.22 in assay [1] (setting [18]); 3.12 in [1] (setting [17]); 5.26 in [12]; 5.09 in [13]; 3.60 in [4]; 3.05 in assay [5]. In addition, the “Optical Density 600 nm” value in assay [6] was 3.68.
In the case of `Nc1nc(N)nc(N)n1` [melamine, Melamine], the “growth on the compound as sole nitrogen source” value in assay [14] was “able to grow”. Moreover, in [15], the “ammonium chloride concentration giving comparable optical density” value is roughly 2 mM. For the same compound, in assay [8], the “growth with the compound as nitrogen source” value was “does not grow” and the “ammonium chloride concentration giving similar growth” value is roughly 0 mM.
Turning to `NC(=O)NC(N)=O` [biuret, Biuret], the results for the “Optical Density 600 nm” value in assay [1] (setting [18]), in assay [12] and in [13] were 1.21, 2.18 and 2.55, respectively. Further, the “ammonium chloride concentration giving comparable optical density” value in assay [16] is roughly 3 mM. Further, in assay [8], the “growth with the compound as nitrogen source” value was “does not grow”.
